ChEMBL document CHEMBL1201862, “PubChem BioAssay data set” (2004)
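Step 1: Grow cells in 96-well plates. Step 2: Expose to compound for 48 hours at 5 concentrations. Step 3: Interpolate endpoints linearly; if unreached, use highest concentration. GI50 = concentration required for 50% inhibition of growth.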 Active and inactive are the calls of the source. No stated cut-off is given here; in the data, active = GI50 up to about 1.1 µM and inactive = higher.

Key:
Experiment in all cases: NCI tumour cell line growth inhibition, 48 h
[1] = tested on: PC-3
[2] = tested on: SNB-75
[3] = tested on: A549
[4] = tested on: SK-OV-3
[5] = tested on: HOP-62
[6] = tested on: NCI/ADR-RES
[7] = tested on: M14
[8] = tested on: SK-MEL-5
[9] = tested on: HCT-15
[10] = tested on: HT-29
[11] = tested on: RXF 393
[12] = tested on: RPMI-8226
[13] = tested on: IGROV-1
[14] = tested on: OVCAR-8
[15] = tested on: TK-10
[16] = tested on: Malme-3M
[17] = tested on: U-251
[18] = tested on: KM12
[19] = tested on: SR
[20] = tested on: SF-539

Structure (SMILES)	GI50 [1]	GI50 [2]	GI50 [3]	GI50 [4]	GI50 [5]	GI50 [6]	GI50 [7]	GI50 [8]	GI50 [9] [µM]	GI50 [10]	GI50 [11]	GI50 [12]	GI50 [13]	GI50 [14]	GI50 [15]	GI50 [16]	GI50 [17]	GI50 [18]	GI50 [19]	GI50 [20]
O=C1c2cc(Cl)ccc2N=C(NC2CCCC2)C2CSCN12 (stereo not drawn)	55.8 µM (inactive)	52.7 µM (inactive)	> 100 µM (inactive)	> 100 µM (inactive)	> 100 µM (inactive)	> 100 µM (inactive)	91.2 µM (inactive)	46.1 µM (inactive)	> 100	28.9 µM (inactive)	92.9 µM (inactive)	87.5 µM (inactive)	> 100 µM (inactive)	> 100 µM (inactive)	> 100 µM (inactive)	> 100 µM (inactive)	> 100 µM (inactive)	35.7 µM (inactive)	41.5 µM (inactive)	–
CN(C)c1ccc(/C=N/Nc2nc3ccccc3c(=O)n2-c2ccccc2)cc1	55.1 µM (inactive)	5.75 µM (inactive)	> 100 µM (inactive)	72.3 µM (inactive)	33.3 µM (inactive)	63.1 µM (inactive)	78 µM (inactive)	56.9 µM (inactive)	> 100	> 100 µM (inactive)	50.8 µM (inactive)	–	> 100 µM (inactive)	46.9 µM (inactive)	> 100 µM (inactive)	43.1 µM (inactive)	34 µM (inactive)	> 100 µM (inactive)	> 100 µM (inactive)	30.4 µM (inactive)
CSc1ncnc2c1ncn2C1CC(Oc2ccc(C)cc2)C(COc2ccc(C)cc2)O1 (stereo not drawn)	> 100 µM (inactive)	> 100 µM (inactive)	> 100 µM (inactive)	> 100 µM (inactive)	> 100 µM (inactive)	> 100 µM (inactive)	> 100 µM (inactive)	52.2 µM (inactive)	> 100	> 100 µM (inactive)	–	9.66 µM (inactive)	> 100 µM (inactive)	> 100 µM (inactive)	> 100 µM (inactive)	> 100 µM (inactive)	> 100 µM (inactive)	> 100 µM (inactive)	76.6 µM (inactive)	> 100 µM (inactive)
O=[N+]([O-])C1=Cc2cc(Cl)ccc2OC1c1cccc2ccccc12 (stereo not drawn)	0.635 µM (active)	0.6 µM (active)	1.7 µM (inactive)	1.61 µM (inactive)	0.871 µM (active)	2.07 µM (inactive)	1.23 µM (inactive)	1.26 µM (inactive)	0.37	0.637 µM (active)	0.405 µM (active)	0.317 µM (active)	0.625 µM (active)	0.614 µM (active)	1.27 µM (inactive)	1.57 µM (inactive)	1.56 µM (inactive)	1.79 µM (inactive)	0.224 µM (active)	–
Nc1nc(N)c2cc(CNc3ccc(C(=O)NC(CC(=O)O)C(=O)O)c(Cl)c3)ccc2n1 (stereo not drawn)	10.1 µM (inactive)	> 20.8 µM (inactive)	0.0346 µM (active)	6.82 µM (inactive)	–	< 0.0282 µM (active)	0.0743 µM (active)	0.162 µM (active)	0.0203	< 0.0143 µM (active)	61 µM (inactive)	–	0.112 µM (active)	0.032 µM (active)	0.0803 µM (active)	0.383 µM (active)	0.0556 µM (active)	0.0796 µM (active)	0.05 µM (active)	0.313 µM (active)
CC12CC3CC/C(=N\O)C(C1)C3(N1CCOCC1)C/C2=N/O (stereo not drawn)	> 100 µM (inactive)	25.1 µM (inactive)	> 100 µM (inactive)	> 100 µM (inactive)	> 100 µM (inactive)	> 100 µM (inactive)	> 100 µM (inactive)	> 100 µM (inactive)	> 100	> 100 µM (inactive)	> 100 µM (inactive)	–	> 100 µM (inactive)	> 100 µM (inactive)	–	> 100 µM (inactive)	> 100 µM (inactive)	> 100 µM (inactive)	> 100 µM (inactive)	> 100 µM (inactive)
Cc1cc2nc(N3C(=O)/C(=C/c4ccc(Cl)cc4)N=C3c3ccccc3)sc2cc1C	26.5 µM (inactive)	22.3 µM (inactive)	30 µM (inactive)	46.2 µM (inactive)	28.9 µM (inactive)	23.2 µM (inactive)	32.7 µM (inactive)	16.1 µM (inactive)	29.1	23.9 µM (inactive)	14.6 µM (inactive)	35.9 µM (inactive)	14.6 µM (inactive)	28.4 µM (inactive)	39.3 µM (inactive)	–	29.9 µM (inactive)	16.3 µM (inactive)	46.5 µM (inactive)	18.7 µM (inactive)
O=C(CC(=O)N1N=C(N(c2ccccc2)c2ccccc2)CC1c1ccccc1)Nc1ccc(Cl)cc1 (stereo not drawn)	> 100 µM (inactive)	94 µM (inactive)	> 100 µM (inactive)	> 100 µM (inactive)	> 100 µM (inactive)	> 100 µM (inactive)	> 100 µM (inactive)	> 100 µM (inactive)	> 100	> 100 µM (inactive)	> 100 µM (inactive)	> 100 µM (inactive)	> 100 µM (inactive)	> 100 µM (inactive)	> 100 µM (inactive)	–	> 100 µM (inactive)	> 100 µM (inactive)	> 100 µM (inactive)	> 100 µM (inactive)
COc1cc(-c2nc(N)c(C#N)c3c2CCS(=O)(=O)c2ccc(C)cc2-3)cc(OC)c1OC	> 100 µM (inactive)	16.7 µM (inactive)	> 100 µM (inactive)	–	22.9 µM (inactive)	12.6 µM (inactive)	> 100 µM (inactive)	> 100 µM (inactive)	> 100	> 100 µM (inactive)	–	> 100 µM (inactive)	18.7 µM (inactive)	4.98 µM (inactive)	9.98 µM (inactive)	17.5 µM (inactive)	24.8 µM (inactive)	> 100 µM (inactive)	> 100 µM (inactive)	–
O=[N+]([O-])c1ccc(CSc2nncc3[nH]cnc23)cc1	> 100 µM (inactive)	80.2 µM (inactive)	> 100 µM (inactive)	> 100 µM (inactive)	> 100 µM (inactive)	> 100 µM (inactive)	> 100 µM (inactive)	> 100 µM (inactive)	> 100	> 100 µM (inactive)	–	> 100 µM (inactive)	> 100 µM (inactive)	> 100 µM (inactive)	> 100 µM (inactive)	66.8 µM (inactive)	> 100 µM (inactive)	> 100 µM (inactive)	> 100 µM (inactive)	> 100 µM (inactive)
O=C(c1ccccc1)C1N=NCC1c1ccc([N+](=O)[O-])cc1 (stereo not drawn)	54.8 µM (inactive)	16.7 µM (inactive)	37.2 µM (inactive)	> 100 µM (inactive)	> 100 µM (inactive)	39.3 µM (inactive)	48.9 µM (inactive)	26.1 µM (inactive)	45.8	36.6 µM (inactive)	–	29.9 µM (inactive)	–	42.8 µM (inactive)	34 µM (inactive)	51.4 µM (inactive)	48.5 µM (inactive)	45.4 µM (inactive)	27.9 µM (inactive)	58.3 µM (inactive)
CCC(CCCN)Nc1cc(OC)cc2cccnc12 (stereo not drawn)	> 100 µM (inactive)	31.1 µM (inactive)	> 100 µM (inactive)	> 100 µM (inactive)	> 100 µM (inactive)	> 100 µM (inactive)	41.3 µM (inactive)	85.1 µM (inactive)	> 100	32.4 µM (inactive)	41.3 µM (inactive)	–	87.3 µM (inactive)	> 100 µM (inactive)	> 100 µM (inactive)	38.7 µM (inactive)	–	> 100 µM (inactive)	79.6 µM (inactive)	> 100 µM (inactive)
O=[N+]([O-])c1cc2ccc1OCc1cccc(n1)COc1ccc(cc1[N+](=O)[O-])/C=N\CCCCCCCC/N=C\2	> 100 µM (inactive)	> 100 µM (inactive)	> 100 µM (inactive)	–	> 100 µM (inactive)	> 100 µM (inactive)	> 100 µM (inactive)	> 100 µM (inactive)	> 100	> 100 µM (inactive)	–	> 100 µM (inactive)	> 100 µM (inactive)	> 100 µM (inactive)	> 100 µM (inactive)	> 100 µM (inactive)	> 100 µM (inactive)	> 100 µM (inactive)	> 100 µM (inactive)	> 100 µM (inactive)
COc1cc(C2=C(C)[C@@H]3CN(CC=C3c3ccc(Cl)cc3)C2)c(S(=O)(=O)O)cc1OC	> 100 µM (inactive)	> 100 µM (inactive)	> 100 µM (inactive)	> 100 µM (inactive)	> 100 µM (inactive)	> 100 µM (inactive)	> 100 µM (inactive)	> 100 µM (inactive)	> 100	> 100 µM (inactive)	> 100 µM (inactive)	> 100 µM (inactive)	> 100 µM (inactive)	> 100 µM (inactive)	> 100 µM (inactive)	> 100 µM (inactive)	> 100 µM (inactive)	> 100 µM (inactive)	> 100 µM (inactive)	–
COc1cc2c(cc1OCCCCOc1cc3nc(C)nc(Cl)c3cc1OC)N=C[C@@H]1CCCN1C2=O	3.11 µM (inactive)	1.46 µM (inactive)	2.79 µM (inactive)	30.4 µM (inactive)	2.67 µM (inactive)	2.27 µM (inactive)	1.88 µM (inactive)	1.77 µM (inactive)	1.43	2.42 µM (inactive)	2.12 µM (inactive)	–	1.64 µM (inactive)	3.01 µM (inactive)	2.34 µM (inactive)	1.79 µM (inactive)	1.26 µM (inactive)	1.89 µM (inactive)	0.57 µM (active)	2.04 µM (inactive)
